This is an account of results in US5385842A, “Anthraquinones as inhibitors of sulfide production from sulfate-reducing bacteria” (E. I. Du Pont de Nemours and Company, priority 1993, dated 1995).

Structures are written as SMILES. Counter-ions that a name gives are not always drawn.

In this experiment the test system is Desulfovibrio desulfuricans G100A. The experiment can be described thus: microbe, parasite or virus in culture. Conditions: Desulfovibrio desulfuricans, G100A, read-out: % Inhib. (inhibition of sulfide production). Format: cell-based.
Take `O=C1c2ccccc2C(=O)c2cc(CO)ccc21` [2-(Hydroxymethyl)anthraquinone]: the inhibition (as a rule, the share of the control response that was lost under treatment) at 30 ppm turned out to be 87%.

Regarding `O=C(Nc1cccc2c1C(=O)c1cccc(NC(=O)c3ccccc3)c1C2=O)c1ccccc1` [1,5-Dibenzamidoanthraquinone, N,N'-(9,10-Dihydro-9,10-dioxo-1,5-anthracenediyl)-bisbenzamide], the inhibition at 30 ppm turned out to be 0%.

`Cc1cc(O)c2c(c1O)C(=O)c1cccc(O)c1C2=O` [Islandicin, 1,4,5-Trihydroxy-2-methyl-9,10-anthracenedione]: the inhibition at 10 ppm stood at 50%.

With `O=C(Nc1cccc2c1C(=O)c1cccc(Nc3cccc4c3C(=O)c3cccc(NC(=O)c5ccccc5)c3C4=O)c1C2=O)c1ccccc1` [4,5'-Dibenzamido-1,1'-dianthrimide, N,N'-[Iminobis(9,10-dihydro-9,10-dioxo-5,1-anthracenediyl)]bisbenzamide], the inhibition at 30 ppm was determined as 0%.

`O=C1c2ccc3nc(-c4ccccc4)sc3c2C(=O)c2ccc3nc(-c4ccccc4)sc3c21` [Indanthrene yellow GCN, 2,8-Diphenyl-anthra[2,1-d:6,5-d']bisthiazole-6,12-dione]: the inhibition at 10 ppm worked out at 15.6%.

For the compound `CC(=O)OC1C=CCC2C(=O)c3cccc(O)c3C(=O)C12` (racemic) [(+,-)-1-Acetoxy-8-hydroxy-1,4,4a,9a-tetrahydroanthraquinone], the inhibition at 10 ppm is 28.1%.

Turning to `Nc1ccc(O)c2c1C(=O)c1c(O)ccc(N)c1C2=O` [1,5-Diamino-4,8-dihydroxyanthraquinone], the inhibition at 30 ppm is 2.6%.

For `Cc1cc(C)c(S(=O)(=O)O)c(C)c1Nc1ccc(Nc2c(C)cc(C)c(S(=O)(=O)O)c2C)c2c1C(=O)c1ccccc1C2=O` [Acid blue 80, 3,3'-[(9,10-Dihydro-9,10-dioxo-1,4-anthracenediyl)adiimino]bis[2,4,6-trimethylbenzenesulfonicacid], di Na salt], the inhibition at 10 ppm amounted to 0%.

In the case of `Cc1ccc(Nc2cccc3c2C(=O)c2cccc(Nc4ccc(C)cc4S(=O)(=O)O)c2C3=O)c(S(=O)(=O)O)c1` [Alizarin violet 3R, 2,2'-[(9,10-Dihydro-9,10-dioxo-1,5-anthracenediyl)-diimino]bis[5-methylbenzenesulfonic acid], di Na salt], the inhibition at 10 ppm is 30.9%.

`CNc1ccc(Nc2ccc(C)cc2S(=O)(=O)O)c2c1C(=O)c1ccccc1C2=O` [Alizarine astrol B-CF, 2-[[9,10-Dihydro-4-(methylamino)-9,10-dioxo-1-anthracenyl]amino]-5-methyl-benzenesulfonic acid, monosodium salt]: the inhibition at 10 ppm worked out at 2.6%.

In the case of `Nc1ccc2c(c1)C(=O)c1ccccc1C2=O` [2-Aminoanthraquinone], the inhibition at 10 ppm came out at 30.4%.

As for `O=C1c2ccccc2C(=O)c2c(O)c(S(=O)(=O)O)cc(O)c21` [9,10-Dihydro-1,4-dihydroxy-9,10-dioxo-2-anthracenesulfonic acid], the inhibition at 30 ppm is 7.8%.

`O=C1c2ccccc2C(=O)c2c1cc(S(=O)(=O)O)c(O)c2O` [Alizarin red S monohydrate, 3,4-Dihydroxy-9,10-dioxo-2-anthracenesulfonic acid]: the inhibition at 10 ppm was determined as 0%.

Take `Cc1ccc(Nc2ccc(O)c3c2C(=O)c2ccccc2C3=O)c(S(=O)(=O)O)c1` [Solway purple R, 2-[(9,10-Dihydro-4-hydroxy-9,10-dioxo-1-anthracenyl)-amino]-5-methyl-benzenesulfonic acid, Na salt]: the inhibition at 30 ppm amounted to 9.1%.

`Nc1ccc(NC(=O)c2ccccc2)c2c1C(=O)c1ccccc1C2=O` [1-Amino-4-benzamidoanthraquinone, N-(4-Amino-9,10-dihydro-9,10-dioxo-1-anthracenyl)-benzamide]: the inhibition at 30 ppm came to 0%.

As to `Nc1c(S(=O)(=O)O)cc(Nc2ccc(S(=O)(=O)O)c(Nc3nc(Cl)nc(Cl)n3)c2)c2c1C(=O)c1ccccc1C2=O` [reactive blue 4], the inhibition at 10 ppm was 7.3%.

Consider `O=C1c2ccccc2C(=O)c2c(O)cccc21` [1-Hydroxyanthraquinone], for which the inhibition at 10 ppm came to 59.3%.
